Measured values taken from paper PMC7313537 (PLoS ONE, 2020).

Columns and labels:
[1] = molecular target: MINK (Homo sapiens, UniProt Q8N4C8); test: Enzyme selectivity panel; type: biochemical; settings: 1 mM ATP
Procedure: (§1) The kinase assays were carried out at room temperature in HEPES 50 mM, pH 7.0, NaN3 0.02%, BSA 0.01%, Orthovanadate 0.1 mM, DTT 1 mM, MgCl2 10 mM in a final volume of 10 µL. Test compounds were transferred to the plate wells by ECHO liquid handler (Labcyte, San Jose, CA) with 0.5% dimethyl sulfoxide (DMSO) in the final assay. Peptide/kinase mixtures were diluted in the appropriate enzymatic buffer and 5µL of the mixture was added to a 384-well small volume black plate. Reactions were initiated by the addition of 5 µL ATP in reaction buffer, the final reaction mixture consisted of 500 nM peptide substrate, 1 mM ATP, and appropriate amount of specific kinase. […] The plates were then sealed and centrifuged at 1800 rpm for 2 minutes. […] Half maximal inhibitory concentration (IC50) determination was performed by fitting the curve of percent control activity versus the log of the compound concentration using the GraphPad Prism 6.0 software.

[2] = molecular target: T1, PDGFR BETA (Homo sapiens, UniProt P09619); test: Enzyme selectivity panel; type: biochemical; settings: 1 mM ATP
T1 construct: purchased In-house HTRF panel (56 kinases) and PerkinElmer (161-kinase panel)
Procedure: as §1

[3] = molecular target: SGK3 (Homo sapiens, UniProt Q96BR1); test: Enzyme selectivity panel; type: biochemical; settings: 1 mM ATP
Procedure: as §1

[4] = test system: KG1a (AML); test: Cell viability assay (CellTiter-Glo); type: cell-based; settings: Homo sapiens, KG-1a; FGFR1OP2-FGFR1 fusion; 72 hours; read-out: Mean GI50 ± S.D.
[5] = test system: phospho-FRS2 and phospho-ERK in RT-4 cells (FGFR3-TACC3); test: Western blot of FGFR pathway markers; type: cell-based; settings: 2 hours
Text: All antibodies were purchased from commercial sources as follows: antibodies against FGFR1 (monoclonal [rabbit], catalogue no. 9740, Antibody Registry Identifier AB_11178519), ERK (monoclonal [mouse], 9107, AB_10695739), phospho-p42/44 ERK1/2 (monoclonal [rabbit], 4370, AB_2315112), phospho-STAT5 (Tyr694; monoclonal [rabbit], 4322, AB_10544692), and STAT5 (monoclonal [rabbit], 9358, AB_659905) were from Cell Signaling Technologies (Danvers, MA) and used at 1:1000 dilution; FGFR3 (monoclonal [rabbit], AB133644, AB_2810262) and FRS2 (polyclonal [rabbit], AB10425, AB_2247176) were from Abcam (Cambridge, UK) and used at 1:2000; and phospho-FRS2 (Tyr436; polyclonal [rabbit], AF5126, AB_2106234) was from R&D Systems (Minneapolis, MN) and used at 1 μg/mL. The pFGFR2 enzyme-linked immunosorbent assay (ELISA) kit was purchased from R&D Systems and ELISA was performed per manufacturer protocol.
Original Western blot images are shown in S1 File (S1 Raw images).

[6] = molecular target: T2, MET M1250T (Homo sapiens, UniProt P08581, M1250T); test: Broader kinase panel (PerkinElmer); type: biochemical; settings: 100 nM; read-out: Average Percent Inhibition
T2 construct: purchased In-house HTRF panel (56 kinases) and PerkinElmer (161-kinase panel)
Text: […]. […] […].

[7] = molecular target: NLK (Homo sapiens, UniProt Q9UBE8); test: Enzyme selectivity panel; type: biochemical; settings: 1 mM ATP
Chain of NLK (Q9UBE8 whole entry): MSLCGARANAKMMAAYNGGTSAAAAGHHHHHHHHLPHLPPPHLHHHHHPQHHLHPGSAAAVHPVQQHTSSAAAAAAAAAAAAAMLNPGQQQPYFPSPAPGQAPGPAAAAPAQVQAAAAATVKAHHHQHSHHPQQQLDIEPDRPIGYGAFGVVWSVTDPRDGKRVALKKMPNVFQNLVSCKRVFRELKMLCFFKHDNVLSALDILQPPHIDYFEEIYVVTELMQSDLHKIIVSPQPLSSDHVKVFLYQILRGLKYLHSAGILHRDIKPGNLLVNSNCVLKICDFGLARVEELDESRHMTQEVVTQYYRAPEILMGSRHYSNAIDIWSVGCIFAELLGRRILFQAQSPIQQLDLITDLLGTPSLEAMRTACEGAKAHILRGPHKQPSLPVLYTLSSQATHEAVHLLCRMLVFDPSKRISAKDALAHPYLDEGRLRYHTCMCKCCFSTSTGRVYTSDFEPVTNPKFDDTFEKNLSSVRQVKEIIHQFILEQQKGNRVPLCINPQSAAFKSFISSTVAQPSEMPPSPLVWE
Procedure: as §1

[8] = molecular target: IGF1R (Homo sapiens, UniProt P08069); test: Enzyme selectivity panel; type: biochemical; settings: 1 mM ATP
Chain of IGF1R (P08069 31-1367, species assumed): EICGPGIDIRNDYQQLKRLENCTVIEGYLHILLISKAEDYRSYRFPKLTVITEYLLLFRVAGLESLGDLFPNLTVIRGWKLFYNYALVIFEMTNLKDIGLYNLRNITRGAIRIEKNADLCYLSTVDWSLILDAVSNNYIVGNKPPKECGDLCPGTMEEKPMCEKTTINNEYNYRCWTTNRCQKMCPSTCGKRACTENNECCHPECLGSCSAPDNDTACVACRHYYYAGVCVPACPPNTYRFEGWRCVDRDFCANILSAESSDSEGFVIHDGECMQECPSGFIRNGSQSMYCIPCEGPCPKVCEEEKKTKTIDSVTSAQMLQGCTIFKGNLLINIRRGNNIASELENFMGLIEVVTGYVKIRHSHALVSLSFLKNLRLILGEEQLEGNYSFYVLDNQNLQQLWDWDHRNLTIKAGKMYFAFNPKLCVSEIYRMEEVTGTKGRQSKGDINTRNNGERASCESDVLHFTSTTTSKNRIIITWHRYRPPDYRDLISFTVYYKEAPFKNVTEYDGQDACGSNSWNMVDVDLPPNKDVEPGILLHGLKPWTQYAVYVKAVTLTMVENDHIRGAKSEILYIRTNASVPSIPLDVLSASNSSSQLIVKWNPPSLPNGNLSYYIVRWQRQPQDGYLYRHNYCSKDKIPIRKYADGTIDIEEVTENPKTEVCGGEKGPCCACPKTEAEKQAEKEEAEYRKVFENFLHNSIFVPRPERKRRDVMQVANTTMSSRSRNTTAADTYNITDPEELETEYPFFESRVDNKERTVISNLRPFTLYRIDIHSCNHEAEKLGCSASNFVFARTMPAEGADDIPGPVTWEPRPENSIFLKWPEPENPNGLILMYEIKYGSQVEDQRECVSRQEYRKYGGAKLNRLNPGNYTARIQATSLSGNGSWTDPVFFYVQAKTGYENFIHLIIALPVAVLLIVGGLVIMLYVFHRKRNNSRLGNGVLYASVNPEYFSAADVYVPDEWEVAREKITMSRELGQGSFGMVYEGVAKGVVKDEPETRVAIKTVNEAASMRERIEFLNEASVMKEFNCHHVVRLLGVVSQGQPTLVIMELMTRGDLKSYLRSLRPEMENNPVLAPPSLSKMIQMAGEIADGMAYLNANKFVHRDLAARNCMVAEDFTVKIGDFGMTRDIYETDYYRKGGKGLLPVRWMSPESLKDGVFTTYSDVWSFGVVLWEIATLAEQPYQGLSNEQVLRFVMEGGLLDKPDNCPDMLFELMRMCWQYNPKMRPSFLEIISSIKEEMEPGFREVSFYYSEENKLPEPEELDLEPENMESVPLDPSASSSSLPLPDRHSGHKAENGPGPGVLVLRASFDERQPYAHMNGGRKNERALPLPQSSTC
Procedure: as §1

[9] = molecular target: PAK4 (Homo sapiens, UniProt O96013); test: Enzyme selectivity panel; type: biochemical; settings: 1 mM ATP
Procedure: as §1

[10] = molecular target: TRKA (Homo sapiens, UniProt P04629); test: Enzyme selectivity panel; type: biochemical; settings: 1 mM ATP
Chain of TRKA (P04629 33-796, species assumed): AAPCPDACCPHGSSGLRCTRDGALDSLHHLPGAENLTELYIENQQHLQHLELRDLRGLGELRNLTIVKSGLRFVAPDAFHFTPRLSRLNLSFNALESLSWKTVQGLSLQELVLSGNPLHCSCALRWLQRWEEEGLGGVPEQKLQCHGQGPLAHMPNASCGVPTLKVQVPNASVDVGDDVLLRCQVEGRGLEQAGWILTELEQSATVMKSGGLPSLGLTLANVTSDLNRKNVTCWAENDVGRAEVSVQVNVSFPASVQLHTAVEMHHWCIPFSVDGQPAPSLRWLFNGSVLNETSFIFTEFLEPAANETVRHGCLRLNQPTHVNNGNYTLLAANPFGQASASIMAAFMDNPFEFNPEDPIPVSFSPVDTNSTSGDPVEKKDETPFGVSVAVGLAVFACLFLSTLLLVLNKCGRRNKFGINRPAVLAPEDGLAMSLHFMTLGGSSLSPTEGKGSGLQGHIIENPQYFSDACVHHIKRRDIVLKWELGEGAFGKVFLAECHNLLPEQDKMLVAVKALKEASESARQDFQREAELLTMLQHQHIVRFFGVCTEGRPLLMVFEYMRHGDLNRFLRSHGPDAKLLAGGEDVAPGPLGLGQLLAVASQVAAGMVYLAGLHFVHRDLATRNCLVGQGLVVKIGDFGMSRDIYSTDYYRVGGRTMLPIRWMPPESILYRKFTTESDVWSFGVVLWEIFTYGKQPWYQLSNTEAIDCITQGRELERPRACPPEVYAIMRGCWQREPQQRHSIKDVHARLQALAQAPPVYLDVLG
Procedure: as §1

Chain of MINK (Q8N4C8 whole entry): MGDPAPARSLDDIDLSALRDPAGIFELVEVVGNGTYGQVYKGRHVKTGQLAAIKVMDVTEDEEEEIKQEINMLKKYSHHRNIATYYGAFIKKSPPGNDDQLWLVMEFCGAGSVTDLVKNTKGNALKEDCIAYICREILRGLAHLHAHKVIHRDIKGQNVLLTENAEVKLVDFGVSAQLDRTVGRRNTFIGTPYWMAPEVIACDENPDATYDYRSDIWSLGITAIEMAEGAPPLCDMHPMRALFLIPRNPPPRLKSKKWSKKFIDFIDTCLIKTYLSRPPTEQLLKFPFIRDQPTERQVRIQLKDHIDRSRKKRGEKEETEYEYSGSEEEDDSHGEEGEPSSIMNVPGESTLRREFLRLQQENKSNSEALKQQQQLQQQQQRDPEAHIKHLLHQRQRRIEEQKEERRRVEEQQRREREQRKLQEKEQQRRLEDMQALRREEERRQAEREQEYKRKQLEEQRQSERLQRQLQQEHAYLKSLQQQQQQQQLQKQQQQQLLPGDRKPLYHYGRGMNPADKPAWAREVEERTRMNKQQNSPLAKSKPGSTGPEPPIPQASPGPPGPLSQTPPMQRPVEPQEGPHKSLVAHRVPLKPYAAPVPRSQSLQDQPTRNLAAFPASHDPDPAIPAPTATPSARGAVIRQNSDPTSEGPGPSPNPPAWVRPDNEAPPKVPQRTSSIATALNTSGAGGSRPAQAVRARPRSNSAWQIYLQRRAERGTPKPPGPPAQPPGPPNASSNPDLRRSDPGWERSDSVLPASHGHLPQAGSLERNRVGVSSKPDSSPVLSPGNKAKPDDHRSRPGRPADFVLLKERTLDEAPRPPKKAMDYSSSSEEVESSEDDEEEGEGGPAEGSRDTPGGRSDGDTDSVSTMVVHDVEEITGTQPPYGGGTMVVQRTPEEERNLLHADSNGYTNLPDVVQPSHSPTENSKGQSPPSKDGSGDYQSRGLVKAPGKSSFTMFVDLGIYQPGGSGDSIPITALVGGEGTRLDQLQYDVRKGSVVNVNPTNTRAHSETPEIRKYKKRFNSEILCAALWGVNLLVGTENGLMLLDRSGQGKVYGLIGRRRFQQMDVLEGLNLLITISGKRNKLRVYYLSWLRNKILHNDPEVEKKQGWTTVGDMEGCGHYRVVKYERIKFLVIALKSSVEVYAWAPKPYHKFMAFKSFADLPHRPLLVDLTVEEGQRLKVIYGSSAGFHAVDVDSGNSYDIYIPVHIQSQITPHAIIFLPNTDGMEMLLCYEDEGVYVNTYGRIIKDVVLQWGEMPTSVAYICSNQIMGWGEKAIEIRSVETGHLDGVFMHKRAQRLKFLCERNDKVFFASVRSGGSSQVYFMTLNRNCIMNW
T1 sequence (P09619 33-1106, species assumed): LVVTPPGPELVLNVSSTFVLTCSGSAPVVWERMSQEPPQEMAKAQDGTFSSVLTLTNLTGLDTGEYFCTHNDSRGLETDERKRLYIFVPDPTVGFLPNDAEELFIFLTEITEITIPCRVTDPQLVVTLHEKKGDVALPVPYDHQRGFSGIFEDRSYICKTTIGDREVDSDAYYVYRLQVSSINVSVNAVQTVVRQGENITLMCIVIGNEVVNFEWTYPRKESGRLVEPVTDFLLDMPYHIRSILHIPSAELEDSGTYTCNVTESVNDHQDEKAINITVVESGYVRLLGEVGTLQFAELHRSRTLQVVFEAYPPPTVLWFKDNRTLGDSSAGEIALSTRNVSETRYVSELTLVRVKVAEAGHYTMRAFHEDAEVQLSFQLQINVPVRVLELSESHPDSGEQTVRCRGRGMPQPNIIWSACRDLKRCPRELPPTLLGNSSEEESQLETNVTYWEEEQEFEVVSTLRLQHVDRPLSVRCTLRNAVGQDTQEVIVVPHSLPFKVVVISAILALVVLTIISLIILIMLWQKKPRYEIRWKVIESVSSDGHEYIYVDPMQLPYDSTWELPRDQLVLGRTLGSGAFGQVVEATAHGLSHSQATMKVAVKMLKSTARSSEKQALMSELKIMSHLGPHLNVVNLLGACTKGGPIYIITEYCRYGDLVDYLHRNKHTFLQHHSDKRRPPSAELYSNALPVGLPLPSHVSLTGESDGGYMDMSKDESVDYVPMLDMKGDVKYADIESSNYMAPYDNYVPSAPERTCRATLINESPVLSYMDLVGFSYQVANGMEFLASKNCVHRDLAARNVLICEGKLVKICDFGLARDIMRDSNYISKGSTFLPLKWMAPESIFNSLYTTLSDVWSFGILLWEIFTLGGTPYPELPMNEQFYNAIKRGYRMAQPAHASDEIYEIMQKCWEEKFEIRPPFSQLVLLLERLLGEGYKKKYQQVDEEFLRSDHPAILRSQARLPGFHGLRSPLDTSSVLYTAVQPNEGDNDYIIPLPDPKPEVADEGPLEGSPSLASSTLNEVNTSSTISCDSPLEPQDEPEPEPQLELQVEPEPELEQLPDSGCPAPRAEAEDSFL

## CCN1C(=O)N(c2c(F)c(OC)cc(OC)c2F)Cc2cnc3[nH]c(CN4CCOCC4)cc3c21 [INCB054828, pemigatinib]
[1]
  IC50: > 10 µM
[2]
  IC50: 1.79 µM
[3]
  IC50: > 10 µM
[4]
  GI50: 0.003 ± 0.001 µM
[5]
  levels of phospho-FRS2 and phospho-ERK: strongly suppresses
[6]
  inhibition at 0.1 µM: 1%
[7]
  IC50: > 10 µM
[8]
  IC50: > 10 µM
[9]
  IC50: > 10 µM
[10]
  IC50: > 10 µM
